From US11987571B1, “Ethyl 2-[9-(6-chloro-2-hydroxyquinolin-3-yl)-3,6-diphenyl-1,8-dioxo-3,4,9,10-tetrahydroacridine-10-yl]-acetate as an antimicrobial compound” (KING FAISAL UNIVERSITY, priority 2023, dated 2024)

Assays:
[1] = tested on: Staphylococcus aureus; test: Antimicrobial activity by agar dilution, St. Aereus; assay type: cell-based; settings: after 10, 20, 40 and 60 minutes at all dilutions 1:100, 1:200, 1:400, and 1:800
Protocol: (§1) The antibacterial properties of the synthesized compound (ethyl 2-[9-(6-chloro-2-hydroxyquinolin-3-yl)-3,6-diphenyl-1,8-dioxo-3,4,9,10-tetrahydroacridine-10-yl]-acetate) were studied by the method of agar dilution. Test solutions of each compound was prepared in concentration of 1% using dimethylformamide as a solvent. Then they were diluted in physiological solution to obtain the final experimental dilutions of 1:100, 1:200, 1:400, and 1:800. The effect of these substances were compared with furacillin in a controllable study. The testing microbes used were gram positive bacteria Staphylococcus aureus, gram negative bacteria Pseudomonas aeruginosa, Escherichia coli, and Candida albicans fungus. The experiments used for this survey were meat-pentonlu agar (EPA) for cultivation of bacteria and Saburo environment for fungi. Each experiment used 1 mL of test solution on each plate for […]. Two drops of emulsified with microbes feel were added. All experimental samples were taken from the agar after 10, 20, 40, 60 minutes in the environment on the basis of Patrk planted. Bacteria were cultivated at a temperature of 37° C. for 1 day and the mushroom was kept in a thermostat for […] at a temperature of 28° C. Then results were checked. Those of control and the antimicrobial activity for the synthesized compounds are listed in Table 1 below, with furacillin serving as a reference.

[2] = tested on: Escherichia coli; test: Antimicrobial activity by agar dilution, E. Coli; assay type: cell-based; settings: after 10, 20, 40 and 60 minutes at all dilutions 1:100, 1:200, 1:400, and 1:800
Protocol: as §1

[3] = tested on: Pseudomonas aeruginosa; test: Antimicrobial activity by agar dilution, Ps. aeruginosa; assay type: cell-based; settings: after 10, 20, 40 and 60 minutes at all dilutions 1:100, 1:200, 1:400, and 1:800
Protocol: as §1

[4] = tested on: Candida albicans; test: Antimicrobial activity by agar dilution, Candida albicans; assay type: cell-based; settings: after 10, 20, 40 and 60 minutes at all dilutions 1:100, 1:200, 1:400, and 1:800
Protocol: as §1

melting point: 222 °C
SMILES: CCOC(=O)CN1C2=C(C(=O)CC(c3ccccc3)C2)C(c2cc3cc(Cl)ccc3nc2O)C2=C1CC(c1ccccc1)CC2=O (centres unmarked) [ethyl 2-[9-(6-chloro-2-hydroxyquinolin-3-yl)-3,6-diphenyl-1,8-dioxo-3,4,9,10-tetrahydroacridine-10-yl]-acetate]
inhibition activity compared with Furacilin [1]: higher inhibition activity | inhibition activity compared with Furacilin [2]: higher inhibition activity | inhibition activity compared with Furacilin [3]: higher inhibition activity | inhibition activity compared with Furacilin [4]: higher inhibition activity
